Assay [1] in a line: Blood markers (Vetscan) in a separate cohort of old mice. It is filed as in vivo, female C57/BL6 mice. To be noted: ~19 mo females, before 4th round, Compound 2 10 mg/kg, Compound 3 25 mg/kg, versus vehicle. On the procedure:
Blood was collected prior to each round of injection for physiological assessments. Mice were allowed to rest 4 weeks prior to being culled and organs collected for freezing in OCT, paraffin embedding and snap-freezing for RNA extraction.
For analysis of immune cell composition in whole blood, tail-vein blood was collected 2 days after last treatment. Whole blood was diluted in saline to a volume of […] and ran on a Sysmex XE2100 automated cell counter. Blood glucose levels were determined by collecting whole-blood from tail vein into heparinised tubes (Abraxis), 120-140 μL of whole-blood to be loaded onto a comprehensive diagnostic profile reagent rotor (Abraxis) and run on a VetScan VS2 Chemistry Analyzer (Abraxis: 500-7123).
Further experiments were performed on a separate cohort of old mice. […] This regimen was repeated 4 more times and blood was collected for Vetscan measurements prior to the 4th round of treatment (FIG. 19). At that stage, ~19 mo females presented elevated levels of ALT, amylase and glucose in blood when compared with young mice (FIG. 20A).

Assay [2] relates to senescent preneoplastic hepatocytes. As to the kind of experiment: Model of liver cancer initiation (Nras G12V by hydrodynamic tail vein injection). In kind it is in vivo, C57BL/6J mice. To be noted: 25 mg/kg i.p. daily for 4 days from day 5 after HDTVI; FIGS. 16C-E. On the procedure:
All mice were purchased from Charles River UK, Ltd. For Hydrodynamic tail vein injection (HDTVI) experiments female C57BL/6J mice aged 5-6 weeks were given 20 μg of Nras^G12V & gaussia luciferase (Gluc) expressing plasmid and 5 μg of SB13 transposase-expressing plasmid. Plasmids were prepared using GeneElute HP Endotoxin-free Plasmid Maxiprep kit (Sigma). Purified plasmids were diluted in sterile-filtered PBS to a total volume of 10% mouse body weight and injected into mouse lateral tail vein within a 10 s window. 4 days after HDTVI, mice were bled to assess presence of gaussia luciferase signal in the blood serum and used to randomize/equalize groupings for vehicle and drug treated groups. […]
Immunohistochemical staining—Slides were deparaffinised by washing slides twice in Histoclear™ for 5 min each, followed by 5 min washes in decreasing concentrations of ethanol with 100%, 75%, 50% & 25% ethanol washes before a final wash 5 min in dH2O. […] Signal development was stopped when visible positive cells could be detected on a microscope, by washing slides in dH2O. […]
Slide image acquisition & analysis—Slides were acquired using a 20× brightfield objective on a Zeiss Axio Scan Z.1 slide scanner and analysis performed using QuPath version 0.2.0-m9 using in built positive cell detection tool to segment Haematoxylin stained nuclei and quantify mean intensity of DAB. […]

The test system of assay [3] is HCT116 colon cancer cells. As to the kind of experiment: Senolytic survival assay, chemotherapy-induced senescence in cancer cells. To be noted: second experiment: doxorubicin 100 nM, etoposide 2 μM or cisplatin 100 μM, or DMSO; replenished after 72 h, 48 h more; FIGS. 7A-C. In kind it is cell-based, human. Here is the method:
IMR90 cells were used to generate inducible ER:RAS (hereinafter iRAS) cells to model Oncogene induced senescence (OIS), through retroviral infection of pLNC-ER:RAS-neo into IMR90 cells followed by selection with Neomycin. IMR90 cells containing the pLNC-ER:RAS plasmid backbone pLXSN were infected in parallel to assess leakiness in the pLNC-ER:RAS system. Treatment with 100 nM 4OHT (Sigma, in DMSO) was used to induce IMR90 ER:RAS cells to undergo oncogene induced senescence (OIS). Therapy induced senescence (TIS) was induced in IMR90 cells by treatment with 33 μM (50 ug/ml) bleomycin sulphate (Generon, HY-17565) for 24 hours, 20 μM palbociclib (Selleckchem, S1116) for 7 days or 100 nM doxorubicin (Cayman chemical, 15007) for 7 days. Senescence was induced in SK-HEP-1 cells by treatment with 2 μM etoposide (Sigma-Aldrich, E1383) for 7 days (FIGS. 4A-C). HCT-116 senescence was induced by 250 nM treatment with doxorubicin (Cayman chemical, 15007) for 48 hours followed by 5 days culture in media without chemotherapy (FIG. 5), or by treatment with 100 nM doxorubicin, 2 μM etoposide or 100 μM cisplatin for 3 days followed by 4 days culture in media without chemotherapy (FIGS. 6A-7C). Senescence was induced in MCF7 by 200 nM treatment with doxorubicin for 7 days, 2 μM etoposide for 7 days or 10 μM cisplatin for 7 days (FIGS. 8A-9C).
High-throughput microscopy survival assay—To assess senolytic effect of drugs, cells were cultured for 7 days, culture media was changed to DM0.5 media and drugs in DMSO were added (<5% v/v final concentration), drugs were replenished after 3 days if assay length was longer than 72 h. Wells were fixed in 4% PFA for 1 hour at day 10 to 14, washed 3 times with PBS and then stained with 1 μg/mL DAPI (w/v, PBS) for 10 minutes. Wells were then washed 3 times with PBS. Optionally plates could be stored at 4° C. for up to 2 weeks and DAPI stained. Image acquisition of DAPI stained cells was performed on an automated InCell Analyser 2000 (GE Healthcare®) and high-content analysis on the InCell Investigator 2.7.3 software used to quantify number of DAPI positive cells per well. […] Survival was measured as cell counts relative to DMSO treated quiescent or senescent cells.
In a first experiment, HCT116 colon cancer cells were treated with doxorubicin (to induce senescence), or DMSO (as a control). […] 7 days after adding the drugs with replenishment after 3 days, cells were fixed, imaged and cells numbers were quantified using high throughput microscopy. […]
In a second experiment, HCT116 were treated with doxorubicin, etoposide or cisplatin (to induce senescence) or DMSO (as a control). 7 days after treatment, BrdU incorporation (to assess cell division), SA-β-Galactosidase activity and p21^CIP1 expression (as markers of senescence) were analysed. […]

Regarding `Cc1c(CCOc2cc(Cl)ccc2-c2ccc3ncc(CCN)n3c2)c(C(=O)N(C)C)nn1C` [Compound 3, 4-(2-{2-[3-(2-aminoethyl)imidazo[1,2-a]pyridin-6-yl]-5-chlorophenoxy}ethyl)-N,N,1,5-tetramethyl-1H-pyrazole-3-carboxamide], the ALT in blood entry in assay [1] (FIG. 20A) is recorded as “lower level”. In addition, the Amylase in blood result in assay [1] (FIG. 20B) is on record as “lower level”. In addition, in assay [1] (FIG. 20C), the Glucose in blood result is “lower level”. For the same compound, in assay [2], the “Number of senescent preneoplastic hepatocytes” value is on record as “reduces the number senescent preneoplastic hepatocytes”. For the same compound, the “Survival, senescent versus control cells” value in assay [3] is “preferentially kill cancer cells that undergo senescence after being treated with doxorubicin, etoposide or cisplatin”.

Values taken from patent US12691100B2, “NMT inhibitor treatment of a senescence-associated disease or disorder of the liver” (Imperial College Innovations Limited, priority 2020, dated 2026).
